Where two headings read alike, the source gives them in different places.
Experiments:
serotonine 2 receptor = biological target: T1, serotonine 2 receptor (Rattus norvegicus, UniProt P14842); assay: [3H]ketanserin binding assay (affinity for serotonine 2 receptor); parameters: species or system Wistar male rat; conditions: rat frontal cortex, 1 nM [3H] ketanserin, 37° C., 10 minutes
T1 construct: frontal cortex fraction prepared from the brain of a Wistar male rat; from tissue; host or cells: rat brain frontal cortex (Wistar, male), membrane fraction
T1 sequence (P14842 whole entry): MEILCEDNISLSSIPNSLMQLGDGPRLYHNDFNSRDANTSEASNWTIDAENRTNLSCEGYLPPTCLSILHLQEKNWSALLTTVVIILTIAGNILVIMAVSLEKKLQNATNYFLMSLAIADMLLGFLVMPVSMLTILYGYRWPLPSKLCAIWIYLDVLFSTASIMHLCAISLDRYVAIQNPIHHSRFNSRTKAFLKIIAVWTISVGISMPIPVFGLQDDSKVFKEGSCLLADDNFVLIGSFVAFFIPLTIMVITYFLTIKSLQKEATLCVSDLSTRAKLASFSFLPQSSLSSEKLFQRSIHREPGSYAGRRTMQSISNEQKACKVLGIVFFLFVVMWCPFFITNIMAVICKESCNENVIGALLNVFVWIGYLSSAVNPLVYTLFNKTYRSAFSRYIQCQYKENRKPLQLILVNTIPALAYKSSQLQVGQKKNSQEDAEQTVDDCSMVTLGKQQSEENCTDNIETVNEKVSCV
Protocol: (§1) Striatal membranes fractions were prepared from a rat brain, and the affinity of the compounds of this invention on dopamine 2 receptors was determined by using [^3 H] spiperone assay from membranes fractions as an index. Moreover, frontal cortex membranes were prepared from a rat brain, and the affinity of the test drugs on serotonine 2 receptor was determined by using [^3 H] ketenserin binding assay. It was shown that the compounds of general formula (1) of the invention have marked anti-dopamine activity and anti-serotonine activity.
[^3 H] ketanserin binding assay
The affinity of the compound of the invention was determined on the basis of the ability to substitute [^3 H] ketanserin from a frontal cortex fraction prepared from the brain of a Wistar male rat.
(§2) The rat was decapitated, and the brain was obtained. The frontal cortex was homogenized in 40 volumes of 50 mM Tris-HCl buffer (pH 7.6), and then centrifuged. The pellets were again homogenized in 100 volumes of the same buffer, and used in a binding test. The binding test was conducted by the following procedure.
(§3) The frontal cortex (original tissue weight 1 mg/ml), 100 microliters of a test drug and 1 nM of [^3 H] ketanserin were incubated at 37° C. for 10 minutes in 50 mM Tris-HCl buffer (pH 7.6). Then, the reaction mixture was suction-filtered through a glass fiber filter (Watmann GF/B) and washed with a buffer three times.
(§4) The filter was put in a scintillation cocktail (ACSII, Amersham Co.), and after mixing, left to stand overnight. The radioactivity held on the filter was measured by a liquid scintillation counter. The nonspecific binding was measured in the presence of 1 μM of methysergide. The concentration of the test drug which inhibited 50% of a specific binding was determined from the graph and defined as IC5. Ki was calculated from the following equation. [formula]

dopamine 2 receptor = biological target: T2, dopamine 2 receptor (Rattus norvegicus, UniProt P61169); assay: [3H]spiperone binding assay (affinity for dopamine 2 receptor); parameters: species or system Wistar-strain male rat; conditions: rat striatal membranes, 0.5 nM [3H] spiperone, 37° C., 10 minutes
T2 construct: membrane fractions prepared from the brain a Wistarstrain male rat; from tissue; host or cells: rat brain striatum (Wistar, male), membrane fraction
T2 sequence (P61169 whole entry): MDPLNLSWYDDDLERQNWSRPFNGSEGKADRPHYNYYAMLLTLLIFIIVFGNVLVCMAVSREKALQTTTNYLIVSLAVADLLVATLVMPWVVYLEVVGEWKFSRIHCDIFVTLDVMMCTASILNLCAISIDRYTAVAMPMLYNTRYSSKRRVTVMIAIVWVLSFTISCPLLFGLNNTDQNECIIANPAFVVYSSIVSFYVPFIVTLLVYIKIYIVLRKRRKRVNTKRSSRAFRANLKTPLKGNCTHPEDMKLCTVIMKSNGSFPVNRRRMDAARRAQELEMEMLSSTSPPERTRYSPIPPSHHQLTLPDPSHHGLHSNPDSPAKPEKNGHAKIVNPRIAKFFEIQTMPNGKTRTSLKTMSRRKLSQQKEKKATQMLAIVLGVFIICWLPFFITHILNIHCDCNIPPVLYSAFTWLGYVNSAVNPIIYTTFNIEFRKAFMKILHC
Protocol: as §1
[^3 H]spiperone binding assay
The affinity of the compounds of this invention to the dopamine 2 receptor was determined on the basis of the ability to substitute [^3 H] spiperone from stratal membrane fractions prepared from the brain a Wistarstrain male rat.
as §2, with “striatum” for “frontal cortex”, “50” for “100”
as §3, with “The stria” for “The frontal cortex”, “weight 20” for “weight 1”, “and 0.5” for “and 1”, “H] spiperone” for “H] ketanserin”
as §4, with “(+) butaclamol.” for “methysergide.”, “IC50.” for “IC5.”

[1] = system: right ventricle (effective refractory period); assay: Activity on ERP of the right ventricle; format: in vivo, adult mongrel dog; conditions: Canis lupus familiaris, ERP before drug = 100%, read-out: ERP % (ERP prolonging activity)
Protocol: The pharmacological effects of the compounds of this invention represented by general formula (1) were studied. By using the heart of an adult mongrel dog, the activity of the compounds of general formula (1) were tested in vitro and in vivo. The heart of an anaethetized dog was extracted and suspended in a chamber at 37° C. in Tyrode's solution. The drug was added to Tyrode's solution being perfused through the heart specimen, and electrophysiological effects of the drug on cardiac action potential duration (APD) and maximum rate of depolarization were studied. An anaethetized dog was cut open at the chest. […] In an anaethetized and open-chested adult mongrel dug, a silver-silver chloride electrode was sutured to the right ventricle, and ventricular pacing was performed at a stimulation interval of 400 msec for a duration time of 4 msec, twice diastolic threshold. Then, a small amount of alcohol was injected through the sinus artery to extinguish the pacemaker activity, and under ventricular pacing, ERP was measured. Ten stimulations were taken as one train, and the interval between trains when the response to the first stimulation disappeared was defined as ERP. […] ERP before drug administration (intravenously or intraduodenally) was taken as 100%, and ERP prolonging activity of the drugs was expressed by %.

in vivo = conditions: mouse, in vivo
Protocol: By using male ddY-strain 5-week old mice (3 to 4 per group), the compounds of general formula (1) were each administered orally or intraperitoneally as a solution in saline or as a suspension in methyl cellulose, and 24 hours after the administration, the toxicity of the compounds was evaluated.

Purkinje fiber = assay: Effect on APD (APD75, field-stimulated right ventricular free wall); format: cell-based, adult mongrel dog; conditions: Canis lupus familiaris, purkinje, 20 min, 20 minutes incubation, 37° C., 1 Hz, control before drug = 100%, read-out: APD75 % (percent change in APD75); for activation at 1 µg/mL: dose 1 μg/ml; for activation at 3 µg/mL: dose 3 μg/ml; for activation at 10 µg/mL: dose 10 μg/ml
Protocol: The pharmacological effects of the compounds of this invention represented by general formula (1) were studied. By using the heart of an adult mongrel dog, the activity of the compounds of general formula (1) were tested in vitro and in vivo. The heart of an anaethetized dog was extracted and suspended in a chamber at 37° C. in Tyrode's solution. The drug was added to Tyrode's solution being perfused through the heart specimen, and electrophysiological effects of the drug on cardiac action potential duration (APD) and maximum rate of depolarization were studied. An anaethetized dog was cut open at the chest.
An adult mongrel dog was anaethetized with intravenous administration of pentobarbital, 30 mg/kg. The heart was quickly removed, and the right ventricular free wall was dissected in the Tyrode's solution. The right ventricular free wall was fixed within an incubator at 37° C., and field stimulation at 1 Hz was carried out. Intracellular potentials were measured by piercing glass microelectrodes (10-20 megaohms) into the Purkinje fiber and the wave form of cardiac action potential drawn on an oscilloBraun tube via an amplifier was analyzed by a computer. Value of APD was obtained at 75% of full repolarization (APD75). The drug was added to Tyrode's solution (20 ml) perfused through the specimen. The effect of the drug was expressed by a percent change in APD75 after incubation for 20 minutes with the control value of APD before application of the drug being taken as 100%.

[2] = po, LD50 p.o., p.o., 24 hours after administration, male ddY mice

| Ki (serotonine 2 receptor) | Ki (dopamine 2 receptor) | SMILES | change in vivo at 0.1 mg/kg ([1]; iv, 0.1 mg/kg i.v.) | change in vivo at 0.3 mg/kg ([1]; iv, 0.3 mg/kg i.v.) | change in vivo at 1 mg/kg ([1]; iv, 1 mg/kg i.v.) | change in vivo at 3 mg/kg ([1]; iv, 3 mg/kg i.v.) | LD50 at 24 h (in vivo; [2]) | activation at 3 µg/mL (Purkinje fiber) | activation at 10 µg/mL (Purkinje fiber) | other results |
| --- | --- | --- | --- | --- | --- | --- | --- | --- | --- | --- |
| > 600 nM | > 400 nM | O=C1COc2cc(OCCCN(Cc3ccccc3)Cc3ccccc3)ccc21 [Compound 176] |  |  |  |  |  |  |  |  |
|  |  | CCCCCCC[N+](CC)(CC)CCCOc1ccc2c(c1)OCC2=O.[Br-] [Compound 286, (3-oxo-6-coumaranoxypropyl)diethylheptyl ammonium bromide] | 5.7 ± 0.3% | 15.7 ± 5.5% | 15.7 ± 5.5% | 17.7 ± 7.3% | 300 to 1000 mg/kg | 29% |  | change in vivo at 0.1 mg/kg ([1]; 0.1 mg/kg i.d.): 0%; change in vivo at 0.3 mg/kg ([1]; 0.3 mg/kg i.d.): 0%; change in vivo at 1 mg/kg ([1]; 1 mg/kg i.d.): 10%; change in vivo at 3 mg/kg ([1]; 3 mg/kg i.d.): 19%; LD50 at 24 h (in vivo; ip, LD50 i.p., i.p., 24 hours after administration, male ddY mice): 100 to 500 mg/kg; activation at 1 µg/mL (Purkinje fiber): 17% |
|  |  | CCCCCCC[N+](CC)(CC)CCCOc1ccc2c(c1)OCC2O (stereo not drawn) [Compound 470] | 0% | 0% | 2% | 8% | > 300 mg/kg | 16% | 20% | activation at 1 µg/mL (Purkinje fiber): 13% |
|  |  | CCCCCCC[N+](CC)(CC)CCCOc1ccc2oc(=O)cc(C)c2c1 [Compound 630] | 3% | 5% | 8% |  | > 300 mg/kg | 25% | 48% |  |
|  |  | CC1CCCCN1CCCOc1ccc2c(c1)OCC2=O (stereo not drawn) [Compound 1114] |  |  | 3% | 8% | > 300 mg/kg | 22% | 35% | activation at 1 µg/mL (Purkinje fiber): 11% |
|  |  | CC1CCN(CCCOc2ccc3c(c2)OCC3=O)CC1 [Compound 1122] |  |  | 9% | 15% | > 300 mg/kg | 15% | 42% | activation at 1 µg/mL (Purkinje fiber): 4% |
| > 600 nM | > 400 nM | O=C1COc2cc(OCCCN3CCc4ccccc4C3)ccc21 [Compound 1162] |  |  |  |  |  |  |  |  |
| > 600 nM | > 400 nM | CN1CCN(CCCOc2ccc3c(c2)OCC3=O)CC1 [Compound 1178] |  |  |  |  |  |  |  |  |
| > 600 nM | > 400 nM | O=C1COc2cc(OCCCN3CCN(Cc4ccccc4)CC3)ccc21 [Compound 1182] |  |  |  |  |  |  |  |  |
| 315 nM | > 400 nM | CN1C(=O)Cc2cnc(N3CCN(CCCOc4ccc5c(c4)OCC5=O)CC3)nc21 [Compound 1186] |  |  |  |  |  |  |  |  |
| > 600 nM | > 400 nM | O=C1COc2cc(OCCCN3CCC(N4CCCCC4)CC3)ccc21 [Compound 1228] |  |  |  |  |  |  |  |  |
| > 600 nM | > 400 nM | O=C1COc2cc(OCCCN3CCN(c4ccccn4)CC3)ccc21 [Compound 1264] |  |  |  |  |  |  |  |  |
|  |  | CCC1CCN(CCCOc2ccc3c(c2)OCC3=O)CC1 [Compound 1274] | 0% | 6.7% | 13.3% | 13.3% |  | 19% |  | LD50 at 24 h (in vivo; po): < 300 mg/kg; activation at 1 µg/mL (Purkinje fiber): 6% |
|  |  | CC(C)C1CCN(CCCOc2ccc3c(c2)OCC3=O)CC1 [Compound 1278] | 1.6 ± 1.6% | 4.8 ± 1.6% | 13 ± 2.4% | 19.8 ± 0.6% | > 300 mg/kg | 9% | 24% |  |
|  |  | CCOC(=O)C1CCN(CCCOc2ccc3c(c2)OCC3=O)CC1 [Compound 1282] | 0% | 0% | 6% | 6% | > 300 mg/kg | 11% | 19% |  |
|  |  | O=C1COc2cc(OCCCN3CCC(CO)CC3)ccc21 [Compound 1290] | 0% | 5.9% | 11.8% | 17.7% |  | 11% | 28% | LD50 at 24 h (in vivo; po): < 300 mg/kg |
| > 600 nM | > 400 nM | O=c1cc(-c2ccccc2)c2ccc(OCCCN3CCC(Cc4ccccc4)CC3)cc2o1 [Compound 1330] |  |  |  |  |  |  |  |  |
| 227 nM | > 400 nM | O=C1NC(=O)c2cc(OCCCN3CCC(Cc4ccccc4)CC3)ccc21 [Compound 1334] |  |  |  |  |  |  |  |  |

| SMILES | Ki (serotonine 2 receptor) | Ki (dopamine 2 receptor) | change in vivo at 0.1 mg/kg ([1]; iv, 0.1 mg/kg i.v.) | change in vivo at 0.3 mg/kg ([1]; iv, 0.3 mg/kg i.v.) | change in vivo at 1 mg/kg ([1]; iv, 1 mg/kg i.v.) | change in vivo at 3 mg/kg ([1]; iv, 3 mg/kg i.v.) | LD50 at 24 h (in vivo; [2]) | activation at 3 µg/mL (Purkinje fiber) | activation at 10 µg/mL (Purkinje fiber) | other results |
| --- | --- | --- | --- | --- | --- | --- | --- | --- | --- | --- |
| O=C1COc2cc(OCCCN3CCC(c4ccccc4)CC3)ccc21 [Compound 1138] | 173 nM | 329 nM |  |  |  |  |  |  |  |  |
| O=C1COc2cc(OCCCN3CCC(O)(c4ccc(Cl)cc4)CC3)ccc21 [Compound 1154] | > 298 nM | > 400 nM |  |  |  |  |  |  |  |  |
| O=C1COc2cc(OCCCN3CCC4(CC3)C(=O)NCN4c3ccccc3)ccc21 [Compound 1246] | > 600 nM | > 400 nM |  |  |  |  |  |  |  |  |
